This passage reports T/C results from PubChem BioAssay AID330 (DTP/NCI, 2004).

SMILES strings stand for the structures. “And” between values parts separate entries of the source, which are not always exact repeats. Equal entries are not always repeated. Toxic doses and inconclusive results are not listed.

The assay concerns P388 leukemia ip, CD2F1 mice, survival T/C. Briefly: NCI In Vivo Anticancer Drug Screen. Data for tumor model P388 Leukemia (intraperitoneal) in CD2F1 (CDF1) mice. To be noted: endpoint: median survival time, higher = longer survival. A digest of the protocol:
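Mice carrying the transplanted tumor received test compound or vehicle. Survival was recorded in each group, and the value is the treated-group measurement divided by that of the vehicle-treated control group.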

[1] abbreviates: dose: 50.0 mg/kg/injection, schedule: Q01DX005 (ip), vehicle: saline with Tween-80.
[2] abbreviates: dose: 100.0 mg/kg/injection, schedule: Q01DX005 (ip), vehicle: saline with Tween-80.
[3] abbreviates: dose: 200.0 mg/kg/injection, schedule: Q01DX005 (ip), vehicle: saline with Tween-80.
The mark [4] stands for this setting: dose: 50.0 mg/kg/injection, schedule: Q01DX005 (ip), vehicle: saline.

Regarding `Cc1ccc(C(=O)NC2C(=O)NC(C(C)C)C(=O)N3CCCC3C(=O)N(C)CC(=O)N(C)C(C(C)C)C(=O)OC2C)c2c1Oc1c(c(C(=O)NC3C(=O)NC(C(C)C)C(=O)N4CCCC4C(=O)N(C)CC(=O)N(C)C(C(C)C)C(=O)OC3C)c3nc(-c4ccccc4)c(=O)oc3c1C)N2` (configuration not stated), the T/C is 168 % of control (dose: 0.13 mg/kg/injection, schedule: Q01DX005 (ip), vehicle: water); 181 % of control and 240 % of control (dose: 0.25 mg/kg/injection, schedule: Q01DX005 (ip), vehicle: water); 246 % of control (dose: 1.0 mg/kg/injection, schedule: Q01DX005 (ip), vehicle: water).

With `O=C(O)C(Cc1ccc(O)cc1)NSc1ccccc1[N+](=O)[O-]` (configuration not stated), the T/C is, setting by setting: (dose: 25.0 mg/kg/injection, schedule: Q01DX009 (ip), vehicle: water) 111 % of control; (dose: 50.0 mg/kg/injection, schedule: Q01DX009 (ip), vehicle: water) 108 % of control; (dose: 100.0 mg/kg/injection, schedule: Q01DX009 (ip), vehicle: water) 104 % of control; (dose: 200.0 mg/kg/injection, schedule: Q01DX009 (ip), vehicle: water) 110 % of control.

For `O=C1Nc2ccccc2C2CCCCC12` (configuration not stated), the T/C by setting is: under setting [1], 107 % of control; under setting [2], 102 % of control; under setting [3], 98 % of control.

As to `O=CC=O`, the T/C reads like this: (dose: 25.0 mg/kg/injection, schedule: Q01DX009 (ip), vehicle: saline) 98 % of control; (dose: 50.0 mg/kg/injection, schedule: Q01DX009 (ip), vehicle: saline with Tween-80) 116 % of control; (dose: 50.0 mg/kg/injection, schedule: Q01DX009 (ip), vehicle: saline) 120 % of control; (dose: 200.0 mg/kg/injection, schedule: Q01DX009 (ip), vehicle: saline with Tween-80) 152 % of control; (dose: 200.0 mg/kg/injection, schedule: Q01DX009 (ip), vehicle: saline) 88 % of control.

As to `O=C(Oc1ccccc1)C1CC2(C1)CC(C(=O)Oc1ccccc1)C2` (configuration not stated), the T/C is, setting by setting: (dose: 100.0 mg/kg/injection, schedule: Q04DX002 (ip), vehicle: saline with Tween-80) 101 % of control; (dose: 200.0 mg/kg/injection, schedule: Q04DX002 (ip), vehicle: saline with Tween-80) 99 % of control; (dose: 400.0 mg/kg/injection, schedule: Q04DX002 (ip), vehicle: saline with Tween-80) 99 % of control.

For the compound `CCCCCCCCCCCCCCCCCCCCCCCCC(O)C(=O)O` (configuration not stated) (tested in a mixture with another compound), the T/C runs as follows: (dose: 12.5 mg/kg/injection, schedule: Q01DX005 (ip), vehicle: saline with Tween-80) 106 % of control; (dose: 25.0 mg/kg/injection, schedule: Q01DX005 (ip), vehicle: saline with Tween-80) 93 % of control; under setting [1], 87 % of control and 89 % of control; under setting [3], 87 % of control.

Take `CCOC(=O)N(C)CCc1cc(OC)c(OC)cc1/C=C\c1ccc(OC)c(OC)c1`: the T/C (dose: 12.5 mg/kg/injection, schedule: Q01DX001 (ip), vehicle: saline + alcohol) is 100 % of control; the T/C (dose: 25.0 mg/kg/injection, schedule: Q01DX001 (ip), vehicle: saline + alcohol) is 98 % of control; the T/C (dose: 50.0 mg/kg/injection, schedule: Q01DX001 (ip), vehicle: saline + alcohol) is 98 % of control.

Regarding `C(=NCCC[Si]12OCCN(CCO1)CCO2)c1c[nH]c2ccccc12`, the T/C reads like this: (dose: 50.0 mg/kg/injection, schedule: Q01DX005 (ip), vehicle: Klucel (hydroxypropylcellulose) (HPC)) 104 % of control; (dose: 100.0 mg/kg/injection, schedule: Q01DX005 (ip), vehicle: Klucel (hydroxypropylcellulose) (HPC)) 103 % of control; (dose: 200.0 mg/kg/injection, schedule: Q01DX005 (ip), vehicle: Klucel (hydroxypropylcellulose) (HPC)) 102 % of control.

As to `CCN(CC)CCNc1ncnc2c1cnn2C`, the T/C by setting is: (dose: 12.5 mg/kg/injection, schedule: Q01DX005 (ip), vehicle: saline) 106 % of control; (dose: 25.0 mg/kg/injection, schedule: Q01DX005 (ip), vehicle: saline) 106 % of control; under setting [1], 99 % of control; under setting [4], 106 % of control.

Regarding `COC1C(c2cc(C(N)=O)n(-c3ccc([N+](=O)[O-])cc3)n2)OC2OC(C)(C)OC21` (configuration not stated), the T/C is 100 % of control (dose: 100.0 mg/kg/injection, schedule: Q01DX001 (ip), vehicle: saline with Tween-80); 96 % of control (dose: 200.0 mg/kg/injection, schedule: Q01DX001 (ip), vehicle: saline with Tween-80); 94 % of control (dose: 400.0 mg/kg/injection, schedule: Q01DX001 (ip), vehicle: saline with Tween-80).

Consider `O=C/C=C/C1C=Cc2c3c(c(O)c(O)c2C(=O)C1O)OCC=C3` (configuration not stated), for which the T/C is, setting by setting: (dose: 6.0 mg/kg/injection, schedule: Q01DX009 (ip), vehicle: Klucel (hydroxypropylcellulose) (HPC)) 94 % of control; (dose: 12.0 mg/kg/injection, schedule: Q01DX009 (ip), vehicle: Klucel (hydroxypropylcellulose) (HPC)) 100 % of control; (dose: 24.0 mg/kg/injection, schedule: Q01DX009 (ip), vehicle: Klucel (hydroxypropylcellulose) (HPC)) 97 % of control; (dose: 48.0 mg/kg/injection, schedule: Q01DX009 (ip), vehicle: Klucel (hydroxypropylcellulose) (HPC)) 104 % of control.

Consider `N=C(N)SC1C=C(O)C=C(c2c(O)c(=O)oc3ccccc23)C1=O` (configuration not stated), for which the T/C by setting is: under setting [1], 104 % of control; under setting [2], 103 % of control; under setting [3], 88 % of control.

As to `CC1CC(c2ccc3ccccc3c2)NCCNC(c2ccc3ccccc3c2)CC(C)NCCN1` (configuration not stated), the T/C is 100 % of control (dose: 0.09 mg/kg/injection, schedule: Q01DX009 (ip), vehicle: saline); 103 % of control (dose: 0.18 mg/kg/injection, schedule: Q01DX009 (ip), vehicle: saline); 102 % of control (dose: 0.36 mg/kg/injection, schedule: Q01DX009 (ip), vehicle: saline); 101 % of control (dose: 3.12 mg/kg/injection, schedule: Q01DX009 (ip), vehicle: saline); 101 % of control (dose: 12.5 mg/kg/injection, schedule: Q01DX009 (ip), vehicle: saline).

On to `O=c1c(Cc2c[nH]c3ccccc23)coc2ccccc12`, for which the T/C is 100 % of control (dose: 60.0 mg/kg/injection, schedule: Q01DX005 (ip), vehicle: saline with Tween-80); 90 % of control (dose: 120.0 mg/kg/injection, schedule: Q01DX005 (ip), vehicle: saline with Tween-80); 89 % of control (dose: 240.0 mg/kg/injection, schedule: Q01DX005 (ip), vehicle: saline with Tween-80).

`O=C(CCl)NCC1OC(n2cnc3c(=O)[nH]cnc32)C(O)C1O` (configuration not stated): the T/C is, setting by setting: under setting [4], 98 % of control; (dose: 100.0 mg/kg/injection, schedule: Q01DX005 (ip), vehicle: saline) 96 % of control; (dose: 200.0 mg/kg/injection, schedule: Q01DX005 (ip), vehicle: saline) 100 % of control.

Turning to `c1ccc(-c2ccc(-c3ccccc3)cc2)cc1`, the T/C is 109 % of control (dose: 12.5 mg/kg/injection, schedule: Q01DX009 (ip), vehicle: Klucel (hydroxypropylcellulose) (HPC)); 97 % of control (dose: 25.0 mg/kg/injection, schedule: Q01DX009 (ip), vehicle: Klucel (hydroxypropylcellulose) (HPC)); 98 % of control (dose: 50.0 mg/kg/injection, schedule: Q01DX009 (ip), vehicle: Klucel (hydroxypropylcellulose) (HPC)); 98 % of control (dose: 100.0 mg/kg/injection, schedule: Q01DX009 (ip), vehicle: Klucel (hydroxypropylcellulose) (HPC)).
